Measurements published in the NIST ThermoML archive (doi:10.1016/j.jct.2013.05.040).

Test: xn = mol fraction of the nth substance listed
Conditions: Liquid; for viscosity: Moving piston method; for mass density: Vibrating tube method

CC [ethane] + CC(C)O
Conditions | mass density, 302.9 K [kg/m3] | mass density, 323.1 K [kg/m3] | viscosity, 302.9 K [mPa·s] | viscosity, 323.1 K [mPa·s]
910 kPa, x1 = 0.057 | – | 741.3 | – | 0.882
1030 kPa, x1 = 0.09 | 751.2 | – | 1.251 | –
1990 kPa, x1 = 0.141 | – | 716.3 | – | 0.663
2030 kPa, x1 = 0.199 | 718.5 | – | 0.919 | –
2970 kPa, x1 = 0.227 | – | 688.2 | – | 0.471
3040 kPa, x1 = 0.347 | 669.3 | – | 0.526 | –
3650 kPa, x1 = 0.47 | 623 | – | 0.246 | –
3970 kPa, x1 = 0.334 | – | 650.6 | – | 0.338
4940 kPa, x1 = 0.478 | – | 593.7 | – | 0.217
5620 kPa, x1 = 0.644 | – | 515.7 | – | 0.131

CC(C)O [propan-2-ol] + O=C=O
Conditions | mass density, 302.8 K [kg/m3] | mass density, 323.1 K [kg/m3] | viscosity, 302.8 K [mPa·s] | viscosity, 323.1 K [mPa·s]
980 kPa, x2 = 0.047 | – | 762.7 | – | 0.895
990 kPa, x2 = 0.062 | 783.8 | – | 1.365 | –
1960 kPa, x2 = 0.102 | – | 767.2 | – | 0.743
2000 kPa, x2 = 0.133 | 791 | – | 1.108 | –
2950 kPa, x2 = 0.164 | – | 771.5 | – | 0.657
2980 kPa, x2 = 0.212 | 798.5 | – | 0.895 | –
3930 kPa, x2 = 0.23 | – | 776.1 | – | 0.538
3970 kPa, x2 = 0.304 | 807.3 | – | 0.604 | –
4930 kPa, x2 = 0.305 | – | 780.3 | – | 0.394
5940 kPa, x2 = 0.391 | – | 783.7 | – | 0.321
